From ChEMBL document CHEMBL1201862, “PubChem BioAssay data set” (2004) come the findings set out here.

One may read the IC50 as the concentration that gives 50% inhibition. One may read the AC50 as the concentration giving half of the maximal activity seen. The term EC50 denotes the concentration needed to bring the measured effect to its halfway point.

One assay addresses T1, Caspase-3 (Homo sapiens, UniProt P42574).
T1 sequence (P42574 whole entry): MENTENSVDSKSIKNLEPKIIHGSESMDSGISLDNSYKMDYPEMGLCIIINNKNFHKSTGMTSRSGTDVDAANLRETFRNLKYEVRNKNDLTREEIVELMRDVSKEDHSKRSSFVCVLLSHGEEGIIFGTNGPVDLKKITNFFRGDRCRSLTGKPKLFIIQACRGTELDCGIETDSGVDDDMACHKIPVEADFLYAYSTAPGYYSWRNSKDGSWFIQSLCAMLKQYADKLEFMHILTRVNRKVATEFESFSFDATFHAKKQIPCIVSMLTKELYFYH
It is filed as functional.

For assay [1], the target named is T2, Sentrin-specific protease 8 (Homo sapiens, UniProt Q96LD8).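 Note: luminescence read-out of SENP8 inhibition, dose-response confirmation following an ultra-high-throughput screen.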
T2 sequence (Q96LD8 whole entry): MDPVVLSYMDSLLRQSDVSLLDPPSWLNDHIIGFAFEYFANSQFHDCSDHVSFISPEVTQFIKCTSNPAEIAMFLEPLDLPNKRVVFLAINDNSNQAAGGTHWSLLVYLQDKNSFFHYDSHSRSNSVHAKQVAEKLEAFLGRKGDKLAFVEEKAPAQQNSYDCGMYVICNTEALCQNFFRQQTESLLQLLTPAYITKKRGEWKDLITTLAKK
It is filed as functional.

Assay [2] has as its target T3, Sentrin-specific protease 6 (Homo sapiens, UniProt Q9GZR1).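 Note: Luminescence-based dose-response confirmatory assay of SENP6 inhibition, following up an ultra-high-throughput screen.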
T3 sequence (Q9GZR1 whole entry): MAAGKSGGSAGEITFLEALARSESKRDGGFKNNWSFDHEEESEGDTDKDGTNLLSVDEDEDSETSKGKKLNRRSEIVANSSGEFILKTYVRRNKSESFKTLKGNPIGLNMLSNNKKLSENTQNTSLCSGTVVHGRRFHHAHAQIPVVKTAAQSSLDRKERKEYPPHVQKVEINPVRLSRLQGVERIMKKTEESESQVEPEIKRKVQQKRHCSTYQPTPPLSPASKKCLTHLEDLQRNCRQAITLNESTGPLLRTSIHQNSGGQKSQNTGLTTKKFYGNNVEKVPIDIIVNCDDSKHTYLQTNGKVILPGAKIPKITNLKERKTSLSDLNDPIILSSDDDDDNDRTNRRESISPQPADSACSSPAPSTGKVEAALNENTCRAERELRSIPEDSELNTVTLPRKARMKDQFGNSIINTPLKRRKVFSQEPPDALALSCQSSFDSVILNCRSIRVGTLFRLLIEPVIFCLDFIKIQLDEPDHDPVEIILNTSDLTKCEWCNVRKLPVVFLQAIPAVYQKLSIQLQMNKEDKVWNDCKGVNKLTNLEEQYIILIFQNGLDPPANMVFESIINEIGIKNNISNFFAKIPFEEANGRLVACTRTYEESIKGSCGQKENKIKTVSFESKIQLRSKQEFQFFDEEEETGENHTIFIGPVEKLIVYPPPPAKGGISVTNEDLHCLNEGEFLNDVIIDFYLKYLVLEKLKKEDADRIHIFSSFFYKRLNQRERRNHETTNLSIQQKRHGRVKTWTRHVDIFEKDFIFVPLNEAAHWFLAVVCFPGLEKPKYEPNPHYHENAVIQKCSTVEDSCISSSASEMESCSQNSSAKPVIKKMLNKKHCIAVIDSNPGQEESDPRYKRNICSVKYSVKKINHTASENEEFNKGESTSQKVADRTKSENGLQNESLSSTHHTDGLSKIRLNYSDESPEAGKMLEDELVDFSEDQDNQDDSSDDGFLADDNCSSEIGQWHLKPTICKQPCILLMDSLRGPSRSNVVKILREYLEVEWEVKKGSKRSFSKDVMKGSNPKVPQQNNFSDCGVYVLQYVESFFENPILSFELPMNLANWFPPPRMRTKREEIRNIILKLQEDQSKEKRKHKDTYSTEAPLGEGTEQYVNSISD
In kind it is functional.

Assay [3] has as its target T4, Sentrin-specific protease 7 (Homo sapiens, UniProt Q9BQF6).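 Note: Luminescence-based dose-response confirmation of ultra-high-throughput screening hits, measuring inhibition of SENP7.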
T4 sequence (Q9BQF6 whole entry): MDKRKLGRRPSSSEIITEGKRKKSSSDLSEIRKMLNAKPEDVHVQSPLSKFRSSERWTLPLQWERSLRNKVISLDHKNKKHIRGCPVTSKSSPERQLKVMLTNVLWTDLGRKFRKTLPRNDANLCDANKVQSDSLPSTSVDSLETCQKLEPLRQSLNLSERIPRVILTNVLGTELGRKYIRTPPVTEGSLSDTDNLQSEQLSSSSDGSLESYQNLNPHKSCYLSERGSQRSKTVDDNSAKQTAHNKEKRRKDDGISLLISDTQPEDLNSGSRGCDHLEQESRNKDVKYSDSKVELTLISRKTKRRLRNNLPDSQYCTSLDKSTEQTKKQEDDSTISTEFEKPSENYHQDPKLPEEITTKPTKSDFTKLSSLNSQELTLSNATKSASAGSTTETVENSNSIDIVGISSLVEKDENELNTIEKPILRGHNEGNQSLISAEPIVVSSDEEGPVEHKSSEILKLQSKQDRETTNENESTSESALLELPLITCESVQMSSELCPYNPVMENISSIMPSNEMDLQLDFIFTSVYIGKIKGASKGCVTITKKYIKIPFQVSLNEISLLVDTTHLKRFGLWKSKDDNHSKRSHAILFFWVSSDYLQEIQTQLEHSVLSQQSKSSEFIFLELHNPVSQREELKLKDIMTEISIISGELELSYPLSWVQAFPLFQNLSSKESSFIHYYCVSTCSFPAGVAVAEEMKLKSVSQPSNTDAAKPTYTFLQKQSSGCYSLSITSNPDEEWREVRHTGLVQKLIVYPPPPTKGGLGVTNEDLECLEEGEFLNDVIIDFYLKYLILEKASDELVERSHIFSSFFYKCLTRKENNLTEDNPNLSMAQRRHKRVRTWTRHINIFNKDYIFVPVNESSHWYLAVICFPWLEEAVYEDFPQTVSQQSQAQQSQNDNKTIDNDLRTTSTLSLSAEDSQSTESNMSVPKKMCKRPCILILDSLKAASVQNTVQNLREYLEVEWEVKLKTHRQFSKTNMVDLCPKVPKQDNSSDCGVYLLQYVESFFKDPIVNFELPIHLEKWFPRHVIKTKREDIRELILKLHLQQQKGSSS
It is filed as functional.

In assay [4] the target is T5, DNA repair and recombination protein RAD54-like (Homo sapiens, UniProt Q92698).
T5 sequence (Q92698 whole entry): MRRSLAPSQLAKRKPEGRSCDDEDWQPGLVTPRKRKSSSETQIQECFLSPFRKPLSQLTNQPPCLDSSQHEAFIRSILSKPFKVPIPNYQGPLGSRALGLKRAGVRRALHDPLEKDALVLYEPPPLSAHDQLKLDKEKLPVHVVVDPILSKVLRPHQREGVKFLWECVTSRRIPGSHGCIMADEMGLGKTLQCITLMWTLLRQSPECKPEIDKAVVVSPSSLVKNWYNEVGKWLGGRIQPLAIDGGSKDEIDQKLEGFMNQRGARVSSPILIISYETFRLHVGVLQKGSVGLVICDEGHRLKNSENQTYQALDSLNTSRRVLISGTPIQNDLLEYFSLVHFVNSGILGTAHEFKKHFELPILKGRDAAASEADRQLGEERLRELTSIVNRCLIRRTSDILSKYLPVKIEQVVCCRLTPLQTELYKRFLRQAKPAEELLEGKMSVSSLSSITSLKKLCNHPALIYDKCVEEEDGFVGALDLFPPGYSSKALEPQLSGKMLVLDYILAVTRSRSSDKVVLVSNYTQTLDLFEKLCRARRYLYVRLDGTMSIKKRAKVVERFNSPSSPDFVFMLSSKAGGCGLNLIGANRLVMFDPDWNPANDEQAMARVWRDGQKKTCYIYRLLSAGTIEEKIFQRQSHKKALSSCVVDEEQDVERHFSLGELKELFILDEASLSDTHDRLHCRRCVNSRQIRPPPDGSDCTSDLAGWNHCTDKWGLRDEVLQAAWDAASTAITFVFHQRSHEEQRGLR
The assay can be described thus: inhibitors of human RAD54 branch migration, confirmation, biochemical, fluorescence, cherry-picked samples, dose series (AID 651657). It is filed as functional.

In assay [5] the target is T6, Heat shock factor protein 1 (Mus musculus, UniProt P38532).
T6 sequence (P38532 whole entry): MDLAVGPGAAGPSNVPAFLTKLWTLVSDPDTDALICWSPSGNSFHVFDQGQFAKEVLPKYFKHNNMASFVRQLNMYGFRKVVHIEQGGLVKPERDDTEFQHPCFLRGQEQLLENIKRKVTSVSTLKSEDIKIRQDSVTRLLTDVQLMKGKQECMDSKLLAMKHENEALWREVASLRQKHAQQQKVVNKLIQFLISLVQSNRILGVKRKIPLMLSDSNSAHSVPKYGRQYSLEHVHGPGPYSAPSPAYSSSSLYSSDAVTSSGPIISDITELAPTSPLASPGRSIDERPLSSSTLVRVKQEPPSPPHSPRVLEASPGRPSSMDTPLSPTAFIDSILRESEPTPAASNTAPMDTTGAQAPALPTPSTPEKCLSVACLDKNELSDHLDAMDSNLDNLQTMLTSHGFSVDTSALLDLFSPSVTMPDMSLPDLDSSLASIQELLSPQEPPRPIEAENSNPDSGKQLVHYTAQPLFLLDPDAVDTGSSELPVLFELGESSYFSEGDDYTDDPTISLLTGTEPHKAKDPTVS
The assay can be described thus: HSF1 potentiators in luciferase reporter cells, confirmation, cell-based, NIH3T3, luminescence, dose retest (AID 435004).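 Note: stress induced by proteasome inhibitor MG132 added 30 min after compound; luciferase reporter driven by HSF1 response element in NIH3T3 cells; actives raise luminescence as potentiators of the MG132 stress response.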 In kind it is functional. (Reporter assays use an easily measured gene product as a stand-in for the process of interest.)

In the next assay the target is Cytochrome P450 2D6 (Homo sapiens, UniProt P10635).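 Note: CYP2D6 member of a cytochrome P450 panel assay.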

SMILES strings stand for the structures. Activity calls are given as the source filed them. Cut-off read from the data, not from the text of the source, for most assays here: actives have a measured IC50 and inactives only a lower limit.

Cytochrome P450 2D6, sequence (P10635 whole entry): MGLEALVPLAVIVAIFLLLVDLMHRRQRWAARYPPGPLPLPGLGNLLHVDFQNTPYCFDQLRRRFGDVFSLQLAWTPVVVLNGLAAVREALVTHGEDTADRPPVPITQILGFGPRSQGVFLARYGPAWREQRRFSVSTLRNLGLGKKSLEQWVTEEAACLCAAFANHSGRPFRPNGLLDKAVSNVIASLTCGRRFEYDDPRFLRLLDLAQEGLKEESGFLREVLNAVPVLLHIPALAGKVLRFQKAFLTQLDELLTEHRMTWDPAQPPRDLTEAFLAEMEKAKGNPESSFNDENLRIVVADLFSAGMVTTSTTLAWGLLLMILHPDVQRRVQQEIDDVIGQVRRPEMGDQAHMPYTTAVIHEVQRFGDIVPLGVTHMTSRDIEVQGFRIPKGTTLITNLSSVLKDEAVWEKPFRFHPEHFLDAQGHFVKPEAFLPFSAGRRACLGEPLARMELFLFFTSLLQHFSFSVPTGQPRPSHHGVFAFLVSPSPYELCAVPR

With `CCOc1ccccc1NC(=O)Nc1ccc2c(c1)CCC2`, the 50% inhibitory concentration (IC50) was 30.8 µM (active) at Caspase-3, 9.29 µM (active) in assay [1], 9.82 µM (active) in assay [2] and 5.64 µM (active) in assay [3].
In the case of `CN1CCN(c2nc(-c3cccs3)nc3ccccc23)CC1`, the AC50 in assay [4] is 8.93 µM (active).
In the case of `CCOC(=O)Nc1ccc(C(=O)Oc2ccccc2)c(O)c1`, the concentration for half-maximal inhibition (IC50) on Caspase-3 was 61.3 µM (active); in assay [1], 79.9 µM (active); in assay [2], 47.6 µM (active); in assay [3] it was 11.6 µM (active). Besides, the concentration giving a half-maximal response (EC50) in assay [5] was 49.2 µM (active). On Cytochrome P450 2D6, the AC50 is 25.1 µM (inconclusive).
As for `CSc1ccccc1NC(=O)c1cc(C2CC2)on1`, the IC50 on Caspase-3 is 18.6 µM (active); in assay [1], 33.3 µM (active); in assay [2] it was 30.7 µM (active); in assay [3] it was 10.1 µM (active).
With `O=C(Nc1cccc(Cl)c1)c1cc(S(=O)(=O)N2CCOCC2)cs1`, in assay [4], the AC50 was 30.1 µM (active).
For the compound `COc1ccc(/C(C)=N/OCC(=O)Nc2nc3ccccc3s2)cc1OC`, the IC50 on Caspase-3 was 49.3 µM (active); in assay [1] it was 62.2 µM (active); in assay [2] it was 36.1 µM (active); in assay [3], 9.91 µM (active).
